One data set concerns MCF7. In words: Cytotoxicity against human MCF7 cells after 7 days by MTT assay. The class given is functional. The following applies: MCF7, 168 h, read-out: ED50 (the source's name). (In general: Tetrazolium assays rely on reduction of a dye to a coloured formazan, in cell work by metabolically active cells.)
Another data set has as its system HT-29. In words: Cytotoxicity against human HT-29 cells after 7 days by MTT assay. It counts as functional. To be noted: HT-29, 168 h, read-out: ED50 (the source's name).
The subject of a further data set is Artemia. Nature of the data set: Toxicity in brine shrimp. To be noted: in vivo. The class given is organism-based.
In the next data set the test system is A549. Nature of the data set: Cytotoxicity against human A549 cells after 7 days by MTT assay. To be noted: A549, 168 h, read-out: ED50 (the source's name). The class given is functional.
In the next data set the test system is PC-3. In words: Cytotoxicity against human PC3 cells after 7 days by MTT assay. The class given is functional.
The next data set relates to MIA PaCa-2. In words: Cytotoxicity against human MIAPaCa2 cells after 7 days by MTT assay. The class given is functional.
The next data set concerns A498. In words: Cytotoxicity against human A498 cells after 7 days by MTT assay. To be noted: A498, 168 h, read-out: ED50 (the source's name). The class given is functional.

In brackets after ≈: the same amount, converted by molar mass.

With `CCCCCCCCCC[C@@H]1O[C@H]([C@@H]2CC[C@H]([C@H](O)CCCCCCCCCC[C@@H](O)CC3=C[C@H](C)OC3=O)O2)CC[C@H]1O` [JIMENEZIN], the EC50 was > 0.1 µg/mL with MCF7, 0.00425 µg/mL (≈ 0.00682 µM) in the data set with HT-29, 0.0164 µg/mL (≈ 0.0263 µM) in the data set with A549 and 0.0494 µg/mL (≈ 0.0793 µM) with A498. Moreover, the Activity with Artemia stood at 5.7 ×10⁻³ ug/ml. Besides, the results for the ED50 with PC-3 and in the data set on MIA PaCa-2 were 2.77 ×10⁻⁴ ug/ml and 1.69 ×10⁻⁴ ug/ml, respectively.

`COc1cccc2c1C(=O)c1c(O)c3c(c(O)c1C2=O)C[C@@](O)(C(=O)CO)C[C@@H]3O[C@H]1C[C@H](N)[C@H](O)[C@H](C)O1` [DOXORUBICIN]: the EC50 in the data set on MCF7 turned out to be 0.0897 µg/mL (≈ 0.165 µM); with HT-29, 0.0162 µg/mL (≈ 0.0298 µM); in the data set with A549, 0.00447 µg/mL (≈ 0.00822 µM); in the data set with PC-3 (Homo sapiens, PC-3, 168 h, read-out: ED50 (the source's name)) it was 0.0213 µg/mL (≈ 0.0392 µM); in the data set with MIA PaCa-2 (Homo sapiens, MIA PaCa-2, 168 h, read-out: ED50 (the source's name)), 0.00288 µg/mL (≈ 0.0053 µM); in the data set with A498 it was 0.0011 µg/mL (≈ 0.00202 µM).

The record behind these values is ChEMBL document CHEMBL1158674, “Jimenezin, a Novel Annonaceous Acetogenin from the Seeds of Rollinia mucosa Containing Adjacent TetrahydrofuranTetrahydropyran Ring Systems ,1” (J Nat Prod, 1998).
